Assays:
[1] = system: MAM-treated rats; details: cited from earlier work
[2] = system: aged-impaired rats; assay: Radial Arm Maze task, acute brivaracetam or seletracetam (Example 4); details: rat, in vivo
[3] = system: aged-impaired rats; assay: water maze task after chronic treatment (Example 4); assay type: in vivo, rat; details: brivaracetam 2 mg/kg/day, osmotic mini-pump
Excerpt: Another cognitive test that may be used to assess the effects of a test compound on the cognitive impairment of a CNS disorder model animal is the Morris water maze. A water maze is a pool surrounded with a novel set of patterns relative to the maze. […] The subject is trained to locate a submerged escape platform hidden underneath the surface of the pool. During the training trial, a subject is released in the maze (pool) from random starting positions around the perimeter of the pool. The starting position varies from trial to trial. […] After a delay period following the last training trial, a retention test in the absence of the escape platform is given to assess spatial memory. The subject's level of preference for the location of the (now absent) escape platform, as measured by, e.g., the time spent in that location or the number of crossings of that location made by the mouse, indicates better spatial memory, i.e., treatment of cognitive impairment. The preference for the location of the escape platform under different treatment conditions, can then be compared for efficacy of the test compound in treating cognitive impairment associated with CNS disorders.
The radial arm maze experiments used acute administration of seletracetam (0-4 mg/kg), brivaracetam (0-4 mg/kg), or saline vehicle given by intraperitoneal injection (in a volume of 1 ml/kg) 30-40 min prior to test sessions. In the chronic treatment experiment, memory-impaired aged rats were implanted subcutaneously in the intrascapular region with osmotic mini-pumps (ALZET, Durect Corporation, Cupertino, Calif.) with brivaracetam (2 mg/kg/day) or saline vehicle starting two weeks prior to assessment in the water maze.
Rats were trained and tested in a novel water maze environment to assess the effect of drug treatment. The water maze used here was housed in a different building and was surrounded by curtains with a novel set of patterns relative to the maze used for initial assessment of cognitive status. The training protocol consisted of 6 trials per day for 2 days to locate a submerged escape platform. […]

[4] = system: aged-impaired rats (AI); assay type: in vivo, rat; details: rat, in vivo
Protocol: FIG. 1 depicts the effects of administering levetiracetam on the spatial memory retention of ten aged-impaired rats (AI) in an eight-arm Radial Arm Maze (RAM) test. Six treatment conditions are employed: vehicle control, levetiracetam (1.25 mg/kg/day), levetiracetam (2.5 mg/kg/day), levetiracetam (5 mg/kg/day), levetiracetam (10 mg/kg/day) and levetiracetam (20 mg/kg/day). In the RAM task used, there is a one-hour delay between presentation of a subset of arms (5 arms available and 3 arms blocked) and completion of the eight-arm win-shift task (eight arms available). Rats are pre-treated 30-40 minutes before daily trials with a one-time drug/control treatment. The number of errors made by the rats during the retention phase is used as a measure of spatial memory retention. Errors are defined as instances when rats enter an arm from which food has already been retrieved in the pre-delay component of the trial or when rats re-visit an arm in the post-delay session that had already been visited. Paired t-tests are used to compare the number of errors between different doses of levetiracetam and vehicle control. […]
A Radial Arm Maze (RAM) behavioral task is one example of a cognitive test, specifically testing spacial memory (Chappell et al. Neuropharmacology 37: 481-487, 1998). The RAM apparatus consists of, e.g., eight equidistantly spaced arms. A maze arm projects from each facet of a center platform. A food well is located at the distal end of each arm. Food is used as a reward. Blocks can be positioned to prevent entry to any arm. Numerous extra maze cues surrounding the apparatus may also be provided. After habituation and training phases, spatial memory of the subjects may be tested in the RAM under control or test compound-treated conditions. As a part of the test, subjects are pretreated before trials with a vehicle control or one of a range of dosages of the test compound. At the beginning of each trial, a subset of the arms of the eight-arm maze is blocked. Subjects are allowed to obtain food on the unblocked arms to which access is permitted during this initial “information phase” of the trial. Subjects are then removed from the maze for a delay period, e.g., a 60 second delay, a 15 minute delay, a one-hour delay, a two-hour delay, a six hour delay, a 24 hour delay, or longer) between the information phase and the subsequent “retention test,” during which the barriers on the maze are removed, thus allowing access to all eight arms. […] The identity and configuration of the blocked arms vary across trials. The number of “errors” the subjects make during the retention test phase is tracked. An error occurs in the trial if the subjects entered an arm from which food had already been retrieved in the pre-delay component of the trial, or if it re-visits an arm in the post-delay session that had already been visited. A fewer number of errors would indicate better spatial memory. The number of errors made by the test subject, under various test compound treatment regimes, can then be compared for efficacy of the test compound in treating cognitive impairment associated with CNS disorders.

## C#Cc1ccc2c(c1)C(c1ccccc1F)=N[C@H](C)c1c(C(=O)OCC)ncn1-2 [SH-053-2′F-R-CH3]
[1]; MAM rats, administered systemically or infused into the ventral HPC, to levels of saline-treated rats
  number of spontaneously active DA neurons in the ventral tegmental area (VTA): reduces the number of spontaneously active DA neurons
[1]; MAM-treated rats
  increased locomotor response to amphetamine: reduced
[1]; saline-treated and MAM-treated animals
  cortical-evoked responses of HPC neurons: diminished cortical-evoked responses

## CCC[C@@H]1CC(=O)N([C@@H](CC)C(N)=O)C1 [brivaracetam]
[2]
  number of errors in the retention phase, effect as a function of dose: significant effect as a function of dose
[3]; 14 days, n=3/group, t(2)=10.000, p=0.010
  spatial bias for the target quadrant compared to the other quadrants (probe test): significant spatial bias for the target quadrant
[3]; t(4)=3.109, p=0.036
  time in the target annulus vs vehicle-treated rats: significantly more time in the target annulus
[3]; t(4)=3.881, p=0.018
  time in the target quadrant vs vehicle-treated rats: significantly more time in the target quadrant

## COc1cc2c(cc1OC)C(=O)C(CC1CCN(Cc3ccccc3)CC1)C2 (stereo not drawn) [donepezil, 2,3-dihydro-5,6-dimethoxy-2-((1-(phenylmethyl)-4-piperidinyl)methyl)-1H-inden-1-one]
[4]
  average no. of errors±SEM: 2.81±0.43
  average no. of errors±standard error of the mean (SEM): 2.88±0.46

## CC[C@@H](C(N)=O)N1C[C@H](C=C(F)F)CC1=O [seletracetam]
[2]
  number of errors in the retention phase, effect as a function of dose: significant effect as a function of dose

## NC1=N[C@H](O)[C@H]2[C@H]3O[C@]4(O)O[C@@H]([C@@H](O)[C@@]2(N1)[C@@H]4O)[C@]3(O)CO [tetrodotoxin]
[1]; rat, in vivo
  augmented amphetamine-induced locomotor behavior: normalized the augmented amphetamine-induced locomotor behavior
  elevated DA neuron population activity: completely reversed the elevated DA neuron population activity
